ChEMBL document CHEMBL5505958, “Optimization of sequence and chiral content enhances therapeutic potential of tilapia piscidin peptides” (Eur J Med Chem, 2024)
Active and inactive are the calls of the source.

Assays:
Vibrio vulnificus [1] = test: Bactericidal activity against Vibrio vulnificus 204 assessed as inhibition of bacterial growth incubated for 16 to 20 hrs in presence of human serum; type: functional; settings: time 16-20 hrs
Salmonella enterica [2] = test: Bactericidal activity against Salmonella enterica 15455 assessed as inhibition of bacterial growth incubated for 16 to 20 hrs; type: functional; settings: time 16-20 hrs
Enterococcus faecalis [3] = test: Antibacterial activity against Enterococcus faecalis 10066 assessed as inhibition of bacterial growth incubated for 16 to 20 hrs; type: functional; settings: time 16-20 hrs
Vibrio vulnificus [4] = test: Bactericidal activity against Vibrio vulnificus 204 assessed as inhibition of bacterial growth incubated for 16 to 20 hrs; type: functional; settings: time 16-20 hrs
Salmonella enterica [5] = test: Antibacterial activity against Salmonella enterica 15455 assessed as inhibition of bacterial growth incubated for 16 to 20 hrs in presence of human serum; type: functional; settings: time 16-20 hrs
Klebsiella pneumoniae [6] = test: Antimicrobial activity against drug-resistant Klebsiella pneumoniae BAA 2473 infected in C57BL/6 mouse assessed as reduction in bacterial load at 5 mg/kg, po administered for 2 hrs and measured at 24 hrs; type: functional, organism-based; settings: time 26.0 hrs
Acinetobacter baumannii [7] = test: Antibacterial activity against Acinetobacter baumannii 10591 assessed as inhibition of bacterial growth incubated for 16 to 20 hrs; type: functional; settings: time 16-20 hrs
Enterococcus faecium [8] = test: Bactericidal activity against Enterococcus faecium 10067 assessed as inhibition of bacterial growth incubated for 16 to 20 hrs; type: functional; settings: time 16-20 hrs
Staphylococcus aureus [9] = test: Antibacterial activity against Staphylococcus aureus 10780 assessed as inhibition of bacterial growth incubated for 16 to 20 hrs; type: functional; settings: time 16-20 hrs
Klebsiella aerogenes [10] = test: Bactericidal activity against Enterobacter aerogenes 15630 assessed as inhibition of bacterial growth incubated for 16 to 20 hrs; type: functional; settings: time 16-20 hrs
Klebsiella pneumoniae [11] = test: Bactericidal activity against Klebsiella pneumoniae BAA 2473 assessed as inhibition of bacterial growth incubated for 16 to 20 hrs; type: functional; settings: time 16-20 hrs
Escherichia coli [12] = test: Antibacterial activity against Escherichia coli 10675 assessed as inhibition of bacterial growth incubated for 16 to 20 hrs; type: functional; settings: time 16-20 hrs
[13] = test system: Staphylococcus haemolyticus; test: Bactericidal activity against Staphylococcus haemolyticus 15237 assessed as inhibition of bacterial growth incubated for 16 to 20 hrs; type: functional; settings: time 16-20 hrs
Enterococcus faecium [14] = test: Antibacterial activity against Enterococcus faecium 10067 assessed as inhibition of bacterial growth incubated for 16 to 20 hrs; type: functional; settings: time 16-20 hrs
Vibrio vulnificus [15] = test: Antibacterial activity against Vibrio vulnificus 204 assessed as inhibition of bacterial growth incubated for 16 to 20 hrs in presence of human serum; type: functional; settings: time 16-20 hrs
Enterococcus faecium [16] = test: Bactericidal activity against Enterococcus faecium 10067 assessed as inhibition of bacterial growth incubated for 16 to 20 hrs in presence of human serum; type: functional; settings: time 16-20 hrs
Yersinia enterocolitica [17] = test: Bactericidal activity against Yersinia enterocolitica 13999 assessed as inhibition of bacterial growth incubated for 16 to 20 hrs; type: functional; settings: time 16-20 hrs
Klebsiella pneumoniae [18] = test: Bactericidal activity against Klebsiella pneumoniae TL 297 assessed as inhibition of bacterial growth incubated for 16 to 20 hrs in presence of human serum; type: functional; settings: time 16-20 hrs
Klebsiella oxytoca [19] = test: Antibacterial activity against Klebsiella oxytoca 13985 assessed as inhibition of bacterial growth incubated for 16 to 20 hrs; type: functional; settings: time 16-20 hrs
Klebsiella pneumoniae [20] = test: Antibacterial activity against Klebsiella pneumoniae BAA 2473 assessed as inhibition of bacterial growth incubated for 16 to 20 hrs; type: functional; settings: time 16-20 hrs
Acinetobacter baumannii [21] = test: Antibacterial activity against Acinetobacter baumannii 10591 assessed as inhibition of bacterial growth incubated for 16 to 20 hrs in presence of human serum; type: functional; settings: time 16-20 hrs
Rhizopus arrhizus [22] = test: Fungicidal activity against Rhizopus oryzae 34550 assessed as inhibition of fungal growth incubated for 72 hrs; type: functional
Enterococcus faecalis [23] = test: Bactericidal activity against Enterococcus faecalis 10066 assessed as inhibition of bacterial growth incubated for 16 to 20 hrs; type: functional; settings: time 16-20 hrs
Vibrio vulnificus [24] = test: Antibacterial activity against Vibrio vulnificus 204 assessed as inhibition of bacterial growth incubated for 16 to 20 hrs; type: functional; settings: time 16-20 hrs
Yersinia enterocolitica [25] = test: Antibacterial activity against Yersinia enterocolitica 13999 assessed as inhibition of bacterial growth incubated for 16 to 20 hrs; type: functional; settings: time 16-20 hrs
Klebsiella oxytoca [26] = test: Antibacterial activity against Klebsiella oxytoca 13985 assessed as inhibition of bacterial growth incubated for 16 to 20 hrs in presence of human serum; type: functional; settings: time 16-20 hrs
Escherichia coli [27] = test: Bactericidal activity against Escherichia coli 10675 assessed as inhibition of bacterial growth incubated for 16 to 20 hrs in presence of human serum; type: functional; settings: time 16-20 hrs
Klebsiella oxytoca [28] = test: Bactericidal activity against Klebsiella oxytoca 13985 assessed as inhibition of bacterial growth incubated for 16 to 20 hrs in presence of human serum; type: functional; settings: time 16-20 hrs
Acinetobacter baumannii [29] = test: Bactericidal activity against Acinetobacter baumannii 10591 assessed as inhibition of bacterial growth incubated for 16 to 20 hrs; type: functional; settings: time 16-20 hrs
Salmonella typhimurium [30] = test: Bactericidal activity against Salmonella typhimurium DT104 assessed as inhibition of bacterial growth incubated for 16 to 20 hrs; type: functional, Salmonella enterica subsp. enterica serovar Typhimurium; settings: Salmonella enterica, time 16-20 hrs
Klebsiella pneumoniae [31] = test: Antibacterial activity against Klebsiella pneumoniae 10692 assessed as inhibition of bacterial growth incubated for 16 to 20 hrs; type: functional; settings: time 16-20 hrs
Rhizopus arrhizus [32] = test: Fungicidal activity against Rhizopus oryzae 34550 assessed as inhibition of fungal growth incubated for 16 to 20 hrs in presence of human serum; type: functional; settings: time 16-20 hrs
Enterococcus faecium [33] = test: Antibacterial activity against Enterococcus faecium 10067 assessed as inhibition of bacterial growth incubated for 16 to 20 hrs in presence of human serum; type: functional; settings: time 16-20 hrs
Staphylococcus aureus [34] = test: Bactericidal activity against Staphylococcus aureus 10780 assessed as inhibition of bacterial growth incubated for 16 to 20 hrs; type: functional; settings: time 16-20 hrs
Salmonella typhimurium [35] = test: Antibacterial activity against Salmonella typhimurium DT104 assessed as inhibition of bacterial growth incubated for 16 to 20 hrs; type: functional, Salmonella enterica subsp. enterica serovar Typhimurium; settings: Salmonella enterica, time 16-20 hrs
Klebsiella aerogenes [36] = test: Antibacterial activity against Enterobacter aerogenes 15630 assessed as inhibition of bacterial growth incubated for 16 to 20 hrs; type: functional; settings: time 16-20 hrs
Klebsiella pneumoniae [37] = test: Bactericidal activity against Klebsiella pneumoniae 10692 assessed as inhibition of bacterial growth incubated for 16 to 20 hrs; type: functional; settings: time 16-20 hrs
Pseudomonas aeruginosa [38] = test: Bactericidal activity against Pseudomonas aeruginosa 19660 assessed as inhibition of bacterial growth incubated for 16 to 20 hrs in presence of human serum; type: functional; settings: time 16-20 hrs
Salmonella typhimurium [39] = test: Antibacterial activity against Salmonella typhimurium DT104 assessed as inhibition of bacterial growth incubated for 16 to 20 hrs in presence of human serum; type: functional, Salmonella enterica subsp. enterica serovar Typhimurium; settings: Salmonella enterica, time 16-20 hrs
Klebsiella oxytoca [40] = test: Bactericidal activity against Klebsiella oxytoca 13985 assessed as inhibition of bacterial growth incubated for 16 to 20 hrs; type: functional; settings: time 16-20 hrs
Salmonella enterica [41] = test: Bactericidal activity against Salmonella enterica 15455 assessed as inhibition of bacterial growth incubated for 16 to 20 hrs in presence of human serum; type: functional; settings: time 16-20 hrs
Salmonella enterica [42] = test: Antibacterial activity against Salmonella enterica 15455 assessed as inhibition of bacterial growth incubated for 16 to 20 hrs; type: functional; settings: time 16-20 hrs
Salmonella typhimurium [43] = test: Bactericidal activity against Salmonella typhimurium DT104 assessed as inhibition of bacterial growth incubated for 16 to 20 hrs in presence of human serum; type: functional, Salmonella enterica subsp. enterica serovar Typhimurium; settings: Salmonella enterica, time 16-20 hrs
Pseudomonas aeruginosa [44] = test: Antibacterial activity against Pseudomonas aeruginosa 19660 assessed as inhibition of bacterial growth incubated for 16 to 20 hrs in presence of human serum; type: functional; settings: time 16-20 hrs
Acinetobacter baumannii [45] = test: Bactericidal activity against Acinetobacter baumannii 10591 assessed as inhibition of bacterial growth incubated for 16 to 20 hrs in presence of human serum; type: functional; settings: time 16-20 hrs
Klebsiella pneumoniae [46] = test: Antibacterial activity against Klebsiella pneumoniae TL 297 assessed as inhibition of bacterial growth incubated for 16 to 20 hrs in presence of human serum; type: functional; settings: time 16-20 hrs
Rhizopus arrhizus [47] = test: Antifungal activity against Rhizopus oryzae 34550 assessed as inhibition of fungal growth incubated for 16 to 20 hrs; type: functional; settings: time 16-20 hrs
[48] = test system: Staphylococcus haemolyticus; test: Antibacterial activity against Staphylococcus haemolyticus 15237 assessed as inhibition of bacterial growth incubated for 16 to 20 hrs; type: functional; settings: time 16-20 hrs
Escherichia coli [49] = test: Bactericidal activity against Escherichia coli 10675 assessed as inhibition of bacterial growth incubated for 16 to 20 hrs; type: functional; settings: time 16-20 hrs
Escherichia coli [50] = test: Antibacterial activity against Escherichia coli 10675 assessed as inhibition of bacterial growth incubated for 16 to 20 hrs in presence of human serum; type: functional; settings: time 16-20 hrs

C[C@H]1c2cccc(O)c2C(=O)C2=C(O)[C@]3(O)C(=O)C(C(N)=O)=C(O)[C@@H](N(C)C)[C@@H]3[C@@H](O)[C@@H]21 [DOXYCYCLINE ANHYDROUS]
100 µM: MBC (Klebsiella pneumoniae [11]) | MBC (Escherichia coli [27]) | MBC (Klebsiella oxytoca [28]) | MBC (Klebsiella pneumoniae [37]) | MBC (Escherichia coli [49])
6.25 µM: MIC (Salmonella enterica [5]) | MBC (Enterococcus faecium [8]) | MIC (Klebsiella oxytoca [19]) | MBC (Enterococcus faecalis [23]) | MIC (Klebsiella oxytoca [26]) | MBC (Salmonella typhimurium [30]) | MIC (Salmonella typhimurium [35]) | MBC (Pseudomonas aeruginosa [38]) | MIC (Pseudomonas aeruginosa [44]) | MBC (Acinetobacter baumannii [45])
0.39 µM: MIC (Enterococcus faecium [33])
50 µM: MIC (Klebsiella pneumoniae [20])
3.13 µM: MIC (Escherichia coli [12]) | MIC (Yersinia enterocolitica [25]) | MIC (Klebsiella pneumoniae [31]) | MIC (Klebsiella aerogenes [36]) | MIC (Salmonella enterica [42]) | MIC (Escherichia coli [50])
12.5 µM: MBC (Enterococcus faecium [16]) | MFC (Rhizopus arrhizus [32]) | MBC (Staphylococcus aureus [34]) | MIC (Salmonella typhimurium [39])
> 100 µM: MBC (Salmonella enterica [2]) | MFC (Rhizopus arrhizus [22]) | MBC (Salmonella enterica [41]) | MBC (Salmonella typhimurium [43]) | MIC (Rhizopus arrhizus [47])
1.56 µM: MIC (Acinetobacter baumannii [21]) | MBC (Acinetobacter baumannii [29])
< 0.39 µM: MBC (Vibrio vulnificus [1]) | MBC (Vibrio vulnificus [4]) | MIC (Vibrio vulnificus [15]) | MIC (Vibrio vulnificus [24])
200 µM: MBC (Klebsiella aerogenes [10]) | MBC (Klebsiella oxytoca [40])
< 1.56 µM: MIC (Enterococcus faecalis [3]) | MBC [13] | MBC (Yersinia enterocolitica [17]) | MIC [48]
inactive: Activity (Klebsiella pneumoniae [6])
25 µM: MBC (Klebsiella pneumoniae [18]) | MIC (Klebsiella pneumoniae [46])
0.2 µM: MIC (Staphylococcus aureus [9]) | MIC (Enterococcus faecium [14])
0.78 µM: MIC (Acinetobacter baumannii [7])
